As a reminder, the Ki is a dissociation constant, usually derived from enzyme kinetics or from competition with a known ligand.

This test has as its target H3 receptors (Cavia porcellus, UniProt Q9JI35). Description: biochemical. On the procedure:
General Procedure for H3-Receptor Binding Assay
The source of the H3 receptors in this experiment was guinea pig brain. The animals weighed 400-600 g. The brain tissue was homogenized with a solution of 50 mM Tris, pH 7.5. The final concentration of tissue in the homogenization buffer was 10% w/v. The homogenates were centrifuged at 1,000×g for 10 min. in order to remove clumps of tissue and debris. The resulting supernatants were then centrifuged at 50,000×g for 20 min. in order to sediment the membranes, which were next washed three times in homogenization buffer (50,000×g for 20 min. each). The membranes were frozen and stored at −70° C. until needed.
All compounds to be tested were dissolved in DMSO and then diluted into the binding buffer (50 mM Tris, pH 7.5) such that the final concentration was 2 μg/ml with 0.1% DMSO. Membranes were then added (400 μg of protein) to the reaction tubes. The reaction was started by the addition of 3 nM [^3H]R-α-methyl histamine (8.8 Ci/mmol) or 3 nM [^3H]N^α-methyl histamine (80 Ci/mmol) and continued under incubation at 30° C. for 30 min. Bound ligand was separated from unbound ligand by filtration, and the amount of radioactive ligand bound to the membranes was quantitated by liquid scintillation spectrometry.

Sequence of H3 receptors (Q9JI35 whole entry): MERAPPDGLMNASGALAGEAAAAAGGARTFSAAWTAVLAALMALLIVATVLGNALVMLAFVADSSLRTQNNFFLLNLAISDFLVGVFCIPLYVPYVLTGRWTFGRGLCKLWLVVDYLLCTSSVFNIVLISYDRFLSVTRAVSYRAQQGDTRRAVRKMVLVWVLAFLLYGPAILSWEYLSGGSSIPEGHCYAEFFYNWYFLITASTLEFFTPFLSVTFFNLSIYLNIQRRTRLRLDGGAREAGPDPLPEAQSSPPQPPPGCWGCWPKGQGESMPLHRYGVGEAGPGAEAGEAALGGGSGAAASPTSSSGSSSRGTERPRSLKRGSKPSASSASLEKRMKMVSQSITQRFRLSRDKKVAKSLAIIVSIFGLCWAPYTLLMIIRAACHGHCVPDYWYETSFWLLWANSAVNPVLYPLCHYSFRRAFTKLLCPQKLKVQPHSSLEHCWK

Turning to `Fc1ccc2c(c1)nc(-c1ccccn1)n2-c1ccc(OCCCN2CCCCC2)cc1` [Example 1EE], the Ki amounted to 1 nM.

Source of the values: patent US7482468B2, “Imidazole and benzimidazole derivatives useful as histamine H3 antagonists” (Schering Corporation, priority 2005, dated 2009).
